Experimental data taken from patent publication US5385921A, “Pharmaceutical formulations” (Aktiebolaget Astra, priority 1990, dated 1995).

How the values were obtained:
[1] = system: CA1/CA2 hippocampal neurones; assay: Neuroprotection studies: damage to CA1/CA2 hippocampal neurones in gerbils after carotid artery occlusion; assay type: in vivo, gerbil
Protocol: (§1) All drugs were dissolved in isotonic saline. Weights refer to the free base.
Ischaemia was induced in gerbils, by occlusion of the carotid arteries following the accepted general procedure as described in, for example, EP 230 370 and R. Gill, A. C. Foster and G. N. Woodruff, J. Neuroscience, 1987, 7, 3343-3349.
Ischaemia was induced in the animals by 5 minute occlusion of both carotid arteries. Body temperature was maintained at 37° C. throughout. Restoration of blood flow after occlusion was checked visually and the animals were allowed to survive for 4 days. The extent of neuronal degeneration in the hippocampus was then assessed. The test compounds were adminstered (i.p.) as a single dose 60 minutes following occlusion. No administration was made prior to the occlusion.

[2] = system: N-methyl-D-aspartate (NMDA) seizures; assay: N-methyl-D-aspartate (NMDA) seizures: tonic convulsions in mice; assay type: in vivo, male TO mice; conditions: Mus musculus, drug 15 min before NMDA 300 mg/kg i.p., weights refer to the free base, read-out: NMDA seizures ED50 (dose required to decrease the incidence of tonic convulsions by 50%)
Protocol: (§2) Animals used were male Wistar rats (140-170 g) and male TO mice (18-30 g).
as §1
Drugs were adminstered 15 min before the NMDA, and data are expressed as the dose required to decrease the incidence of tonic convulsions by 50% (ED50).

[3] = system: locomotor activity; assay: Sedation studies: suppression of locomotor activity in mice; assay type: in vivo, male TO mice; conditions: Mus musculus, recording starts 20 min after administration, 30 min period, weights refer to the free base, read-out: Sedation ED50 (dose required to reduce locomotor activity by 50%)
Protocol: as §2, §1
The test drug was administered to mice and starting 20 min later locomotor activity was recorded for a 30 min period. Activity was monitored using an infra-red light beam interruption system in cages measuring 40 cm×40 cm. Data are expressed as the dose required to reduce locomotor activity by 50% (ED50).

[4] = system: Pentylenetetrazol (PTZ) seizures; assay: Pentylenetetrazol (PTZ) seizures: seizure threshold in rats; assay type: in vivo, male Wistar rats; conditions: Rattus norvegicus, 0.25 h, drug 15 min before PTZ infusion into tail vein, weights refer to the free base, read-out: PTZ seizures TI50 (dose required to increase seizure threshold by 50%)
Protocol: as §2, §1
Seizure threshold was assessed in rats by measurement of the dose of PTZ required to elicit a seizure when infused through a tail vein. PTZ (10 mg/ml) was infused into the tail vein at a rate of […] and the time to the first clonic convulsion measured. Seizure threshold was calculated as described by Green & Murray, J. Pharm. Pharmacol. 1989, 41: 879-880. Drugs were administered 15 min before the PTZ. Data are expressed as the dose required to increase seizure threshold by 50% (TI50).

| SMILES | % Damage to CA1/CA2 Hippocampal Neurones ([1]; 100 mg/kg i.p. single dose 60 minutes after induction of ischaemia, n=8, assessed after 4 days, untreated (None) 92 ±7) [%] | reduction of damage to the CA1/CA2 hippocampal neurones (in words) ([1]; i.p., single dose 60 minutes following occlusion) | ED50 [2] [mg/kg] | ED50 [3] [mg/kg] | ED50 [4] [mg/kg] |
| --- | --- | --- | --- | --- | --- |
| Cc1ncsc1C(O)CCl.Cl (centres unmarked) [5-(2-chloro-1-hydroxyethyl)-4-methylthiazole hydrochloride salt] | 64 ±8 | effective in reducing the damage to the CA1/CA2 hippocampal neurones | – | – | – |
| Cc1ncsc1C(O)CCl (centres unmarked) [5-(2-Chloro-1-hydroxyethyl)-4-methylthiazole ethandisulphonate] | – | – | 40 | 52 | 34 |
